Source: patent US20130211215A1, “HYPEROSMOTIC PREPARATIONS COMPRISING 5-AMINOLEVULINIC ACID OR DERIVATIVE AS PHOTOSENSITIZING AGENT” (Photocure ASA, priority 2010, published 2013)

How the values were obtained:
[1] = Systemic uptake from the colon assessed as PpIX skin fluorescence after colonic instillation; assay type: in vivo, hairless mice (C3.Cg/TifBomTac-hr)
Protocol: Experiments were performed in hairless mice weighing 20 g (C3.Cg/TifBomTac-hr). […] The animals were fasted for 24 hours but with free access to water before the experiment. Prior to administration of the test preparation, the mice were anaesthetised with Hypnorm/Dormicum. This was also repeated every second hour.
When ALA hexylester is administered sytemically, it induces PpIX formation in the entire body. The systemic uptake of ALA hexylester after colonic administration was therefore assessed as skin fluorescence. To assess the PpIX skin fluorescence, the mice were photographed using a fluorescence camera (Medeikonos PDD/PDT, Medeikonos AB, Gothenburg, Sweden) at excitation wavelengths of 365 and 405 nm and 2 sec illumination time. Each photo was calibrated to a fluorescence standard (Uranyl Standard, J&M, Analytische Mess and Regeltecknik, GmbH, Hamburg, Germany) and adjusted for background fluorescence. The mean amount of PpIX fluorescence in each image was calculated by means of image analyzer-software (MatLab 7.2.0.232, Math-Works, Natick, Mass., USA).
All dilutions were performed in 0.9% NaCl (150 mM=300 mOsmol/l). For the colon instillation, a 1000 μl micropipette with a plastic tip was used. […] In all experiments, instillation lasted until the experiment was finished (approx. 5 hours).
Increasing doses (8 to 40 mM ALA hexylester) were given by anal administration to mice and the resulting skin fluorescence measured as described. […] The resulting systemic fraction was proportional to the concentration of ALA hexylester in the enema.
The ALA hexylester was dissolved as the corresponding hydrochloride salt. 20 mM ALA hexylester constitutes an osmolarity of approx. 40 mOsmol/l.
(§1) The purpose of this study was to investigate the effect of adding sorbitol to an enema formulation containing 20 mM ALA hexylester in an attempt to reduce the systemic uptake of the photosensitizer. It was discovered in pilot experiments that sorbitol at concentrations above 300 mM gave diarrhea. Therefore, the effect of 300 mM sorbitol in 0.9% NaCl (600 mOsmol/l) was investigated by comparing the skin fluorescence in two mice that were given 20 mM ALA hexylester (in 0.9% NaCl) with the skin fluorescence in two mice that had received 20 mM ALA hexylester and 300 mM sorbitol. The osmolarities of these solutions are outlined below. • 1. 20 mM ALA hexylester in 0.9% NaCl: (40+300) mOsmol/l=340 mOsmol/l • 2. 20 mM ALA hexylester and 300 mM sorbitol in 0.9% NaCl: (40+300+300) mOsmol/l=640 mOsmol/l (hypertonic preparation)

[2] = Absorption from the colon after enema (pharmacokinetic studies with 14C-labelled agents, HAL enema studies); assay type: in vivo; conditions: enema preparations
Excerpt: Such high systemic uptake of photosensitizer may constitute a safety issue for the patient due to the high dosage of agent circulating within the bloodstream.

[3] = Osmolarity of preparations; assay type: physicochemical; conditions: calculated from concentrations
Excerpt: An osmometer may be used to determine the osmolarity of a solution. There are several different techniques employed in osmometry; vapour pressure depression osmometers determine the concentration of osmotically active particles that reduce the vapour pressure of a solution; membrane osmometers measure the osmotic pressure of a solution separated from pure solvent by a semi-permeable membrane; and freezing point depression osmometers are used to determine the osmotic strength of a solution (since osmotically active compounds depress the freezing point of a solution). Osmolarity may be measured using a vapour pressure osmometer such as that supplied by ELITech Group (Vapro 5600 vapour pressure osmometer). Where reference is made herein to specific values for osmolarity, these values may be determined using such apparatus operated under standard temperature and pressure conditions.
The osmolarity of small molecules can normally be calculated from their concentration in solution. For example, in the case of simple salts such as NaCl: 0.9% NaCl=150 mM. NaCl is fully dissociated in water and both Na^+ and Cl^− contribute to the osmolarity (i.e. each mole of NaCl becomes two osmoles in solution, one mole of Na^+ and one mole of Cl^−). The osmolarity is therefore 150 mM×2=300 mOsmol/l. […]

[4] = system: pre-malignant conditions in the colon; conditions: enema, 200 mg in 500 ml or 1000 ml phosphate buffered saline; Mayinger et al. 2008; cited from earlier work
[5] = set-up: species or system mice; conditions: C3.Cg/TifBomTac-hr (hairless), mouse, in vivo
Protocol: as §1

Compound | skin fluorescence ([1]; 8 mM ALA hexylester (concentration used clinically), colonic instillation 0.6 ml in 0.9% NaCl, FIG. 1) | skin fluorescence ([1]; 20 mM ALA hexyl ester, colonic administration) | relationship between concentration in the enema and resulting skin fluorescence ([1]; 8 to 40 mM, anal administration, FIG. 1) | concentration of ALA hexylester appearing saturating for skin fluorescence ([1]; colonic instillation 0.6 ml in 0.9% NaCl, FIG. 1) [µM] | absorption of the active photosensitizing agent in the colon [2] | osmolarity [3] | more polyps detected by PDD than with white light endoscopic imaging [4] [%] | sorbitol concentration that gave diarrhea [5]
CCCCCCOC(=O)CCC(=O)CN [ALA hexylester, 5-aminolevulinic acid hexyl ester] | no skin fluorescence | reasonable levels of skin sensitivity | clear dose-response relationship | ≥ 30000 | absorption of a significant amount | approx. 40 mOsmol/l | 28 | –
OC[C@@H](O)[C@@H](O)[C@H](O)[C@@H](O)CO [sorbitol] | – | – | – | – | – | – | – | above 300 mM
